In US20250064766A1, “COMPOSITIONS AND METHODS FOR INCREASING ARGININE AND NITRIC OXIDE LEVELS” (priority 2023, published 2025):
≈ marks a conversion by molar mass, not a printed value.

Legend:
[1] = Saturated solubility in deionized water at 62° F.; conditions: 16.7 °C, thermodynamic from solid
Method: Add five grams of conjugate or blend into 100 mL of water in a 250 ml Beaker. • 2. Record temperature of water before adding conjugate or blend. • 3. After conjugate is added to water, stir or swirl solution for 2 minutes exactly. • 4. If the solution is still cloudy or precipitate is present after 2 minutes, promptly transfer mixture into filter. • 5. If the solution is not cloudy and all of conjugate appears to have gone into solution, add another five grams of conjugate and repeat on from step 3. • 6. Record all data and amounts of conjugate added. • 7. Once solution with precipitate has been filtered, dry the filter with conjugate and use mass by difference to record dry mass of conjugate.
(§1) The solution was filtered, dried, and massed.
as §1, §1, §1, §1

[2] = Plasma arginine and citrulline levels following stimulating agent dosing (LC-MRM/MS); type: in vivo
Method: Plasma samples from each of Groups A, B, and C were taken from each subject prior to dosing (baseline) and at 30 minute intervals thereafter up to 180 minutes after dosing (30, 60, 90, 120, and 180 minutes). The pre-dosing sample for each subject is used as a baseline from which to compare any increase or decrease in arginine and/or citrulline plasma levels.
Internal standard (IS) solution of arginine-13C6 and citrulline-d7 were prepared in 6 percent trichloroacetic acid solution. Standard substances of arginine and citrulline were precisely weighed and dissolved in SigMatrix Ultra Serum Diluent to make their stock solutions, at 2000 or 4000 µM for each compound. The stock solutions were then mixed and further diluted with SigMatrix Ultra Serum Diluent to have 9 serially diluted calibration solutions. The concentrations of each compound in the calibration solutions ranged from 0.0008 to 50 μM.
Plasma samples were thawed at room temperature. After vortex-mixing for 5 s, 50 μL of each sample was precisely aliquoted into a 1.5-mL Eppendorf safe-lock tube. […] Twelve 50-μL aliquots of this pooled plasma sample were processed in parallel and analyzed periodically, along with the preparation and analysis of the batch samples and the calibration solutions for the purpose of quality control (QC) to monitor the analytical variations of the sample preparation and the assay. […]

[3] = Urine arginine and citrulline levels following stimulating agent dosing (LC-MRM/MS); type: in vivo
Method: The subjects in each of Groups A and B were given a single 6 g dose (powder dissolved in about 4 oz of water). A urine sample is taken from each subject prior to dosing (baseline) and 24 hours after dosing. The pre-dosing sample for each subject is used as a baseline from which to compare any increase or decrease in arginine and/or citrulline urine levels. • Group A (8 subjects): 6 g of citrulline HCl in 4 oz. of water • Group B (8 subjects): 6 g of L-Citrulline in 4 oz. of water
A third group, consisting of seven subjects, were given a single 2 g dose, otherwise following the same protocol: • Group C (7 subjects): 2 g of citrulline HCl in 4 oz. of water
Internal standard (IS) solutions of arginine-13C6 and citrulline-d7 were prepared in 6 percent trichloroacetic acid solution. Standard substances of arginine and citrulline HCl were precisely weighed and dissolved in Sigmatrix Urine Diluent to make their stock solutions, at 5 mM for each compound. The two stock solutions were then mixed at an equal volume and the mixed standard solution was step by step diluted with Sigmatrix Urine Diluent to have nine serially diluted calibration solutions. The concentrations of each compound in the calibration solutions ranged from 0.015 to 250 μM.
Urine samples were thawed at room temperature. After vortex-mixing for 5 s, 100 μL of each sample was precisely aliquoted into a 1.5-mL Eppendorf safe-lock tube. A mixed urine sample was pooled from 100 μL of each of 10 randomly selected among all the urine samples. Nine 100-μL aliquots of this pooled urine sample were processed along with the batch samples and the calibration solutions for the purpose of quality control (QC) to monitor the analytical variations of the sample preparation and the assay.
To 100 μL of urine or 100 μL of each calibration solution, 100 μL of the IS solution was added. The mixtures were vortexed for 10 s at 3,000 rpm and then sonicated in an ice-water bath for 1 min, followed by centrifugal clarification at 21,000 g and 10° C. for 10 min. 100 μL of the clear supernatant of each solution was mixed with 900 μL of water. 4-μL aliquots of the resultant sample and calibration solutions were injected to run liquid chromatography-multiple reaction monitoring mass spectrometry (LC-MRM/MS) on an Agilent 1290 UHPLC system connected to an Agilent 6495B triple-quadrupole mass spectrometer, which was operated with positive-ion electrospray ionization and in the MRM mode using two pairs of MRM ion transitions and other MS parameters for arginine and citrulline, respectively.
A Waters HSS T3 UPLC column (2.1*100 mm, 1.8 μm) was used for the chromatographic separation and a 5-mM heptafluorobutyric acid solution and acetonitrile were used as the mobile phase for binary-solvent gradient elution under optimized conditions. LC-MRM/MS raw data files were acquired and processed using the Agilent MassHunter® software suite. For concentration calculations, linearly regressed calibration curves of arginine and citrulline were constructed respectively with the data acquired from the calibration solutions. Concentrations of the two compounds detected in urine were calculated by interpolating the calibration curve with the peak area ratios areas measured from the sample solutions, in an appropriate concentration range for each compound.

[4] = single 6 g dose in 4 oz. of water, 24 hours after dosing
[5] = single 6 g dose in 4 oz. of water, Baseline (prior to dosing)

| SMILES | solubility at 2 min [1] | arginine production per dose, comparison of Groups A-C (plasma) ([2]; single 2 g dose, normalized per dose) | concentration at 24 h ([3]; human, urine, oral, single 2 g dose in 4 oz. of water, 24 hours after dosing, read-out: Citrulline Urine Levels Total Average Amount) | percent increase in urine citrulline 24 hours after dosing per gram ([3]; single 2 g dose) | Citrulline Urine Levels Total Average Amount ([3]; single 2 g dose in 4 oz. of water, Baseline (prior to dosing)) | percent increase in urine citrulline 24 hours after dosing per gram ([3]; single 6 g dose) | Citrulline Urine Levels Total Average Amount [3, 4] | Citrulline Urine Levels Total Average Amount [3, 5] | solubility at 2 min ([1]; water) | amount of citrulline in plasma, comparison of Groups A-C ([2]; single 6 g dose) |
| --- | --- | --- | --- | --- | --- | --- | --- | --- | --- | --- |
| Cl.NC(=O)NCCC[C@H](N)C(=O)O [Citrulline HCl, citrulline hydrochloride] | 149 mg/mL | highest arginine production per dose | 17900 µM | about 300 percent/g | 2,471.80 μM | about 300 percent/g | 157,053.26 μM | 8,773.04 μM |  |  |
| NC(=O)NCCC[C@H](N)C(=O)O [L-Citrulline, L-citrulline, reference compound] |  |  |  |  |  | about 1000 percent/g | 128,215.41 μM | 2,042.91 μM | 49.8 mg/mL (≈ 284 mM) | much larger amount of citrulline in plasma |
